Results taken from patent US11246865B2 (priority 2017, dated 2022).
Where “and” joins values, the source holds several entries; their conditions need not be identical. Equal values may be shown once. Entries after “also recorded” stand apart in the source; their conditions may differ.

Columns and labels:
[1] = rat, in vivo
in vivo = details: rat
[2] = rat, in vivo; remark: listed apart in the source
[3] = Study 1: tolerance and cross-tolerance, tail pinch test (MPE); assay type: in vivo, rat; details: for MPE on Day 1: all animals, both dose points and both time points (20 and 30 min); for time to maximal/complete tolerance: b.i.d. s.c. dosing, morphine 5.0 mg/kg, DPI-125 1.0 mg/kg; for antinociceptive effect / tolerance in DPI-125 tolerant animals: tolerant to 1.0 mg/kg DPI-125 BID; for antinociceptive effect / tolerance in DPI-125 tolerant animals / antinociceptive effect / tolerance in morphine tolerant animals: challenge morphine 5.0 or DPI-125 1.0 mg/kg; for antinociceptive effect / tolerance in morphine tolerant animals: tolerant to 5.0 mg/kg morphine BID
[4] = Studies 2 and 3: antinociceptive ED50 in naive and tolerant animals, tail pinch test; assay type: in vivo, rat; details: for ED50: Rattus norvegicus, sc, 20 min; for ED50 / antinociceptive ED50: 20 min tail pinch; for antinociceptive ED50: s.c.
[5] = Phase 1 study DPI-125.IV.001, safety of single intravenous bolus doses; assay type: in vivo, human
Procedure: Given this positive preclinical data, Good Laboratory Practice (GLP) Investigational New Drug (IND) enabling toxicology studies were performed. DPI-125 was tested in human subjects in a PK and safety study. DPI-125.IV.001, was a randomized, single-center, double-blind, placebo-controlled, dose escalating Phase 1 study. The primary objective was to evaluate the safety of single doses of DPI-125 administered by intravenous bolus infusion in normal healthy adult subjects. Male and female subjects between 18 and 55 years of age, inclusive, who were in good health and who were not taking any medications were eligible for enrollment. For each dose group, cohorts of 6 subjects were randomized to receive either placebo (n=1) or DPI-125 for Injection (n=5) as a single bolus dose of 5, 10, 20, or 50 μg/kg administered over 2 minutes. A final cohort received 25 μg/kg administered over 1 minute. For this first in human study, it was decided that 50 μg/kg should be the highest dose to be tested so the maximum tolerated dose was not determined.

[6] = Preclinical toxicity profile; assay type: in vivo
Description: The preclinical toxicity profile of DPI-125 was as expected for an opioid compound, with two positive exceptions.

[7] = target: T1, delta receptor in the mouse brain (Mus musculus, UniProt P32300); experiment: Mouse brain delta receptor agonism
T1 construct: from tissue; host or cells: mouse brain

[8] = target: T2, delta receptor in the mouse vas deferens (Mus musculus, UniProt P32300); experiment: Mouse vas deferens delta receptor agonism
T2 construct: from tissue; host or cells: mouse vas deferens

[9] = DPI-125 tolerant animals, challenge dose 1 (day 7), 30 min
[10] = DPI-125 tolerant animals, challenge dose 1 (day 7), morphine 5.0 or DPI-125 1.0 mg/kg s.c., 20 min
[11] = DPI-125 tolerant animals, challenge dose 2 (day 7.25), 20 min
[12] = DPI-125 tolerant animals, challenge dose 2 (day 7.25), 30 min
[13] = DPI-125 tolerant animals, challenge dose 3 (day 8), 20 min
[14] = DPI-125 tolerant animals, challenge dose 3 (day 8), 30 min
[15] = DPI-125 tolerant animals, challenge dose 4 (day 8.25), 20 min
[16] = DPI-125 tolerant animals, challenge dose 4 (day 8.25), 30 min
[17] = morphine tolerant animals, challenge dose 1 (day 6), 30 min
[18] = morphine tolerant animals, challenge dose 1 (day 6), morphine 5.0 or DPI-125 1.0 mg/kg s.c., 20 min
[19] = morphine tolerant animals, challenge dose 2 (day 6.25), 20 min
[20] = morphine tolerant animals, challenge dose 2 (day 6.25), 30 min
[21] = morphine tolerant animals, challenge dose 3 (day 7), 20 min
[22] = morphine tolerant animals, challenge dose 3 (day 7), 30 min
[23] = morphine tolerant animals, challenge dose 4 (day 7.25), 20 min
[24] = morphine tolerant animals, challenge dose 4 (day 7.25), 30 min
[25] = tolerance development, dose 1 (day 1), s.c. BID (morphine 5.0, DPI-125 1.0 mg/kg), 20 minutes post-drug
[26] = tolerance development, dose 1 (day 1), s.c. BID (morphine 5.0, DPI-125 1.0 mg/kg), 30 minutes post-drug
[27] = tolerance development, dose 2 (day 1.25), s.c. BID, 20 minutes post-drug
[28] = tolerance development, dose 2 (day 1.25), s.c. BID, 30 minutes post-drug
[29] = tolerance development, dose 3 (day 2), s.c. BID, 20 minutes post-drug
[30] = tolerance development, dose 3 (day 2), s.c. BID, 30 minutes post-drug
[31] = tolerance development, dose 4 (day 2.25), s.c. BID, 20 minutes post-drug
[32] = tolerance development, dose 4 (day 2.25), s.c. BID, 30 minutes post-drug
[33] = tolerance development, dose 5 (day 3), s.c. BID, 20 minutes post-drug
[34] = tolerance development, dose 5 (day 3), s.c. BID, 30 minutes post-drug
[35] = tolerance development, dose 6 (day 3.25), s.c. BID, 20 minutes post-drug
[36] = tolerance development, dose 6 (day 3.25), s.c. BID, 30 minutes post-drug
[37] = tolerance development, dose 7 (day 4), s.c. BID, 20 minutes post-drug
[38] = tolerance development, dose 7 (day 4), s.c. BID, 30 minutes post-drug
[39] = tolerance development, dose 8 (day 4.25), s.c. BID, 20 minutes post-drug
[40] = tolerance development, dose 8 (day 4.25), s.c. BID, 30 minutes post-drug
[41] = tolerance development, dose 9 (day 5), s.c. BID, 20 minutes post-drug
[42] = tolerance development, dose 9 (day 5), s.c. BID, 30 minutes post-drug
[43] = tolerance development, dose 10 (day 5.25), s.c. BID, 20 minutes post-drug
[44] = tolerance development, dose 10 (day 5.25), s.c. BID, 30 minutes post-drug
[45] = DPI-125 tolerant versus naive animals
[46] = healthy adults, single IV bolus 5-50 μg/kg

T2 sequence (P32300 whole entry): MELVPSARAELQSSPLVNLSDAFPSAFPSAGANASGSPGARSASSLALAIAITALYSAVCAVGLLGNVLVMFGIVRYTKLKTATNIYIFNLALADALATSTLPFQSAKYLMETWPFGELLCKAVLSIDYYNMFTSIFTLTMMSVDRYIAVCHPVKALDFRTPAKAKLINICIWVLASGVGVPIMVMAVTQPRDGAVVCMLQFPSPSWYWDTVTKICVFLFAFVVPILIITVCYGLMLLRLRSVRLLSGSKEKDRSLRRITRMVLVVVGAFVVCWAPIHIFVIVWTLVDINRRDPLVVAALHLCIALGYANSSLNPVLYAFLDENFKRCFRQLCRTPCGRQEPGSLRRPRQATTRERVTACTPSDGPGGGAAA
T1 sequence (P32300 whole entry): as above

CN1CC[C@]23c4c5ccc(O)c4O[C@H]2[C@@H](O)C=C[C@H]3[C@H]1C5 [Morphine, morphine, reference compound]
Therapeutic Ratio [1]: 2.1
ED50 (in vivo): 4.23 mg/kg
Analgesic ED50 Tail Pinch [2]: 2.01 mg/kg
Mean MPE [3, 9]: 2.63%
Mean MPE [3, 10]: 1.76%
Mean MPE [3, 11]: 0.00%
Mean MPE [3, 12]: 1.75%
Mean MPE [3, 13]: 3.51%
Mean MPE [3, 14]: 0.00%
Mean MPE [3, 15]: 0.88%
Mean MPE [3, 16]: 0.00%
MPE on Day 1 [3]: 100%
time to maximal/complete tolerance [3]: 5 days
Mean MPE [3, 17]: 4.4%
Mean MPE [3, 18]: 4.4%
Mean MPE [3, 19]: 0.9%
Mean MPE [3, 20]: 2.6%
Mean MPE [3, 21]: 0.0%
Mean MPE [3, 22]: 0.9%
Mean MPE [3, 23]: 2.6%
Mean MPE [3, 24]: 1.8%
Mean MPE [3, 25]: 100.0%
Mean MPE [3, 26]: 100.0%
Mean MPE [3, 27]: 100.0%
Mean MPE [3, 28]: 100.0%
Mean MPE [3, 29]: 78.9%
Mean MPE ([3]; tolerance development, dose 3 (day 2), s.c. BID, 20 minutes post-drug, listed as morphine sulfate): 78.9±7.9%
Mean MPE [3, 30]: 75.9%
Mean MPE ([3]; tolerance development, dose 3 (day 2), s.c. BID, 30 minutes post-drug, listed as morphine sulfate): 78.9±8.6%
Mean MPE [3, 31]: 56.6%
Mean MPE [3, 32]: 57.9%
Mean MPE [3, 33]: 33.8%
Mean MPE [3, 34]: 46.5%
Mean MPE [3, 35]: 32.9%
Mean MPE [3, 36]: 24.1%
Mean MPE [3, 37]: 23.7%
Mean MPE [3, 38]: 20.6%
Mean MPE [3, 39]: 7.0%
Mean MPE ([3]; tolerance development, dose 8 (day 4.25), s.c. BID, 20 minutes post-drug, listed as morphine sulfate): 7.0±2.8%
Mean MPE [3, 40]: 5.7%
Mean MPE ([3]; tolerance development, dose 8 (day 4.25), s.c. BID, 30 minutes post-drug, listed as morphine sulfate): 5.7±1.8%
Mean MPE [3, 41]: 3.1%
Mean MPE ([3]; tolerance development, dose 9 (day 5), s.c. BID, 20 minutes post-drug, listed as morphine sulfate): 3.1±1.2%
Mean MPE [3, 42]: 2.2%
Mean MPE ([3]; tolerance development, dose 9 (day 5), s.c. BID, 30 minutes post-drug, listed as morphine sulfate): 2.2±1.0%
Mean MPE [3, 43]: 5.3%
Mean MPE [3, 44]: 3.9%
antinociceptive effect / tolerance in DPI-125 tolerant animals [3]: complete tolerance
antinociceptive effect / tolerance in DPI-125 tolerant animals ([3]; listed as morphine sulfate): no antinociceptive effects
antinociceptive effect / tolerance in morphine tolerant animals [3]: no antinociceptive effects
Fold Change of ED50 [4, 45]: 7.8 fold
ED50 ([4]; DPI-125 tolerant animals): 15.8 mg/kg
ED50 ([4]; morphine tolerant animals): 11.3 mg/kg
ED50 ([4]; naive animals): 2.04 mg/kg
Fold Change of ED50 ([4]; morphine tolerant versus naive animals): 5.5 fold
antinociceptive ED50 ([4]; naive animals): 2.037 mg/kg

C=CCN1C[C@H](C)N([C@H](c2ccsc2)c2cccc(O)c2)C[C@H]1C [DPI-125, (−)3-((S)-((2S,5R)-4-allyl-2,5-dimethyl-1-piperazinyl)(3-thienyl)methyl)phenol]
Therapeutic Ratio [1]: 14.4
therapeutic index relative to morphine [1]: approximately 7 ×
ED50 (in vivo): 0.72 mg/kg
Analgesic ED50 Tail Pinch [2]: 0.050 mg/kg
analgesic potency relative to morphine [2]: > 40 ×
antinociceptive potency relative to morphine [2]: 47 times
seizure activity / seizure liability ([5]; EEG, first in human trial): no seizure activity was noted; also recorded: does not have seizure liability
dysphoria as a side effect ([5]; first in human trial): nor does it exhibit dysphoria
corrected QT intervals [5, 46]: No time- or dose-related trends
deaths or serious AEs [5, 46]: no deaths or any other serious AEs reported
most common drug-related AEs [5, 46]: somnolence, dizziness, and paraesthesia
tolerability [5, 46]: well tolerated
Mean MPE [3, 9]: 3.51%
Mean MPE [3, 10]: 8.77%
Mean MPE [3, 11]: 22.82%
Mean MPE [3, 12]: 7.90%
Mean MPE [3, 13]: 9.65%
Mean MPE [3, 14]: 2.63%
Mean MPE [3, 15]: 1.8±1.8% and 1.76%
Mean MPE [3, 16]: 0.88%
MPE on Day 1 [3]: 100%
time to maximal/complete tolerance [3]: 8 days
Mean MPE [3, 17]: 80.7±15.2% and 80.7%
Mean MPE [3, 18]: 64.9%
Mean MPE [3, 19]: 81.6±12.6% and 81.6%
Mean MPE [3, 20]: 42.1%
Mean MPE [3, 21]: 50.9%
Mean MPE [3, 22]: 57.0%
Mean MPE [3, 23]: 30.7%
Mean MPE [3, 24]: 26.3%
Mean MPE [3, 25]: 100.0%
Mean MPE [3, 26]: 100.0%
Mean MPE [3, 27]: 100.0%
Mean MPE [3, 28]: 100.0%
Mean MPE [3, 29]: 99.1%
Mean MPE [3, 30]: 100.0%
Mean MPE [3, 31]: 79.8%
Mean MPE [3, 32]: 88.2%
Mean MPE [3, 33]: 84.7±10.0% and 84.7%
Mean MPE [3, 34]: 66.7±10.9% and 66.7%
Mean MPE [3, 35]: 81.1%
Mean MPE [3, 36]: 69.7%
Mean MPE [3, 37]: 70.6±12.3% and 70.6%
Mean MPE [3, 38]: 72.8%
Mean MPE [3, 39]: 75.0%
Mean MPE [3, 40]: 51.3%
Mean MPE [3, 41]: 75.9±9.5% and 75.9%
Mean MPE [3, 42]: 40.8±11.2% and 40.8%
Mean MPE [3, 43]: 47.4±11.9% and 47.4%
Mean MPE [3, 44]: 28.5±9.3% and 28.5%
Mean MPE ([3]; tolerance development, dose 11 (day 6), s.c. BID, 20 minutes post-drug): 34.2±12.5% and 34.2%
Mean MPE ([3]; tolerance development, dose 11 (day 6), s.c. BID, 30 minutes post-drug): 21.1%
Mean MPE ([3]; tolerance development, dose 12 (day 6.25), s.c. BID, 20 minutes post-drug): 37.7±12.7% and 37.7%
Mean MPE ([3]; tolerance development, dose 12 (day 6.25), s.c. BID, 30 minutes post-drug): 11.8±7.9% and 11.8%
antinociceptive effect / tolerance in DPI-125 tolerant animals [3]: no antinociceptive effects
antinociceptive effect / tolerance in morphine tolerant animals [3]: only partially tolerant; also recorded: significant antinociceptive effects
emesis ([6]; even at the highest doses given): did not occur
flushing, reddened mucous membranes or urticaria ([6]; in vivo): did not produce any
delta receptor agonist activity [7]: an agonist at the delta receptor
delta-opioid agonist activity [8]: acts as a delta-opioid agonist
antinociceptive ED50 ([4]; DPI-125 tolerant animals): 1.218 mg/kg
Fold Change of ED50 [4, 45]: 2.99 fold and 3.0 fold
ED50 ([4]; DPI-125 tolerant animals): 1.22 mg/kg
ED50 ([4]; morphine tolerant animals): 0.72 mg/kg
ED50 ([4]; naive animals): 0.41 mg/kg
potency in morphine tolerant animals relative to DPI-125 tolerant animals ([4]; more potent in morphine tolerant): 1.7 fold
antinociceptive ED50 ([4]; morphine tolerant animals): 0.717 mg/kg
antinociceptive ED50 ([4]; naive animals): 0.407 mg/kg
